Where a name gives a salt, the structure may show the parent alone. Read-outs that look alike come from different tables or passages of the source.
Experiments:
[1] = human, cited from earlier work
[2] = Rapid equilibrium dialysis; type: in vitro ADME; conditions: human, plasma, pH 7.4
Ultrafiltration [3] = type: in vitro ADME, mouse; conditions: for recovery at 20 min, 10 μM / fraction unbound at 20 min, 10 μM: mouse; for recovery at 20 min, 10 μM / % Recovery from plasma / %PPB (UF): mouse plasma; for fraction unbound at 20 min, 10 μM: plasma; for % Recovery from plasma / %PPB (UF): 10 μM, mean ± SEM, n=3; for % Recovery from plasma: UF mass balance; for %PPB (UF): mass balance
Ultrafiltration [4] = conditions: human; for recovery at 20 min, 10 μM: human plasma; for fraction unbound at 20 min, 10 μM: plasma
[5] = Plasma stability, 37°C for 20 min, human plasma; type: in vitro ADME; conditions: 5% CO2, 20 min, mean ± SEM
[6] = Rapid equilibrium dialysis; type: in vitro ADME, mouse; conditions: for fraction unbound at 4 h, 10 μM: mouse, plasma, pH 7.4
[7] = longer than 20 min; cited from earlier work
[8] = Plasma stability as stated in text, species not specified; type: in vitro ADME; conditions: 20 minute incubation at 37°C
in vitro = conditions: human

Compound | fraction unbound at 4 h, 10 μM [2] | recovery at 20 min, 10 μM (Ultrafiltration [3]) [%] | fraction unbound at 20 min, 10 μM (Ultrafiltration [3]) | recovery at 20 min, 10 μM (Ultrafiltration [4]) [%] | fraction unbound at 20 min, 10 μM (Ultrafiltration [4]) | %Stability [5] [%] | fraction unbound at 4 h, 10 μM [6] | also measured
CC(=O)Nc1ccc(O)cc1 [Acetaminophen] | 0.79 | 97.2 ± 2.5 | 0.701 | 102.6 ± 0.9 | 0.733 | 98.6±2.6 | 0.611 | %PPB (Literature) ([1]; ref 20): 24±7 [20] %
C[C@]12CCC(=O)C=C1CC[C@@H]1[C@@H]2[C@@H](O)C[C@@]2(C)[C@H]1CC[C@]2(O)C(=O)CO [Hydrocortisone] | 0.279 | 102 ± 4 | 0.519 | 104 ± 3.3 | 0.368 | 98.5±1.1 | 0.412 | %PPB (Literature) ([1]; ref 8): 65%; %PPB (Literature) ([1]; ref 23): 80%
O=C(Nc1cccc2cccnc12)c1ccc(N2C(=O)[C@@H]3[C@H](C2=O)[C@@H]2C=C[C@H]3C2)cc1 [IWR1] | – | – | – | – | – | – | – | stability in plasma over longer periods of time [7]: known instability; % Recovery from plasma (Ultrafiltration [3]): 81.1±2.1%; %PPB (UF) (Ultrafiltration [3]): 95.5±0.9%; stability in plasma [8]: stable
COc1ccc2c(c1)c(CC(=O)O)c(C)n2C(=O)c1ccc(Cl)cc1 [Indomethacin] | 0.002 | 99 ± 9.7 | 0.011 | 89.7 ± 7.2 | 0.004 | 111.0±8.8 | 0.013 | %PPB (Literature) ([1]; ref 23): 99 [23] %
O=S(=O)(Nc1ccccc1)c1ccc(NC(=S)Nc2ccccc2)cc1 [LED209E] | – | – | – | – | – | – | – | % Recovery from plasma (Ultrafiltration [3]): 101.0±1.5%; %PPB (UF) (Ultrafiltration [3]): 99.3±0.1%; %PPB (RED) ([6]; mouse plasma, 10 μM, 4 hours at 37°C, mean ± SEM, n=3): 99.2±0.1%
CC[C@H](C)C(=O)O[C@H]1C[C@@H](C)C=C2C=C[C@H](C)[C@H](CC[C@@H]3C[C@@H](O)CC(=O)O3)[C@H]21 [Lovastatin] | 0.004 | 82.1 ± 8.8 | 0.029 | 87.6 ± 3.6 | 0.026 | 96.2±5.1 | 0.084 | %PPB (Literature) ([1]; ref 21): >95 [21] %
OC(CNc1ccccc1)Cn1c2ccc(Br)cc2c2cc(Br)ccc21 (stereo not drawn) [P7C3] | – | – | – | – | – | – | – | % Recovery from plasma (Ultrafiltration [3]): 100.0±9.4%
CC(=O)O[C@H]1C(=O)[C@@]2(C)[C@H]([C@H](OC(=O)c3ccccc3)[C@]3(O)C[C@H](OC(=O)[C@H](O)[C@@H](NC(=O)c4ccccc4)c4ccccc4)C(C)=C1C3(C)C)[C@]1(OC(C)=O)CO[C@@H]1C[C@@H]2O [Paclitaxel] | 0.03 | 90.8 ± 3.2 | 0.046 | 87.6 ± 2.2 | 0.132 | 104.8±2.0 | 0.024 | %PPB (Literature) ([1]; ref 23): 88 [23] %
CC(C)NCC(O)COc1cccc2ccccc12 (stereo not drawn) [Propranolol HCl] | 0.166 | 104 ± 7.6 | 0.326 | 100 ± 1.6 | 0.328 | 98.7±1.2 | 0.264 | %PPB (Literature) ([1]; ref 8): 65–70 [8] %
Nc1ccc(S(=O)(=O)Nc2ncccn2)cc1 [Sulfadiazine] | – | 108 ± 2 | 0.403 | – | – | – | 0.47 | –
COc1cc(NS(=O)(=O)c2ccc(N)cc2)nc(OC)n1 [Sulfadimethoxine] | – | 109 ± 1.1 | 0.04 | – | – | – | 0.044 | –

Now from value to molecule, other results behind:

fraction unbound at 4 h, 10 μM [2] | recovery at 20 min, 10 μM (Ultrafiltration [3]) [%] | fraction unbound at 20 min, 10 μM (Ultrafiltration [3]) | recovery at 20 min, 10 μM (Ultrafiltration [4]) [%] | fraction unbound at 20 min, 10 μM (Ultrafiltration [4]) | %Stability [5] [%] | fraction unbound at 4 h, 10 μM [6] | Compound | also measured
– | 107 ± 1.8 | 0.184 | – | – | – | 0.195 | Cc1ccnc(NS(=O)(=O)c2ccc(N)cc2)n1 [Sulfamerazine] | –
0.108 | 104 ± 1.2 | 0.348 | 99.4 ± 1.7 | 0.184 | 101.9±0.4 | 0.353 | Cc1nnc(NS(=O)(=O)c2ccc(N)cc2)s1 [Sulfamethiazole] | %PPB (Literature) ([1]; ref 22): 85–90 [22] %
– | 108 ± 2.1 | 0.402 | – | – | – | 0.418 | Nc1ccc(S(=O)(=O)Nc2nccs2)cc1 [Sulfathiazole] | –
0.627 | 99.6 ± 8.4 | 0.81 | 104 ± 2.1 | 0.819 | 106.5±3.3 | 0.638 | CC(C)(C)NCC(O)c1cc(O)cc(O)c1 (stereo not drawn) [Terbutaline] | %PPB (Literature) ([1]; ref 21): 20%; %PPB (Literature) ([1]; ref 23): 25%
– | 106 ± 3.1 | – | 97.4 ± 0.2 | – | 102.2±0.8 | – | CCCCNC(=O)NS(=O)(=O)c1ccc(C)cc1 [Tolbutamide] | –
0.113 | 87.5 ± 2.5 | 0.174 | 79.1 ± 2.1 | – | 97.5±3.1 | 0.073 | CC[C@]1(O)C[C@@H]2CN(CCc3c([nH]c4ccccc34)[C@@](C(=O)OC)(c3cc4c(cc3OC)N(C)[C@H]3[C@@](O)(C(=O)OC)[C@H](OC(C)=O)[C@]5(CC)C=CCN6CC[C@]43[C@@H]65)C2)C1 [Vinblastine] | –
– | 94.3 ± 3.7 | 0.025 | – | – | – | 0.009 | CS(=O)(=O)c1ccc(C(=O)Nc2ccc(Cl)c(-c3ccccn3)c2)c(Cl)c1 [Vismodegib] | –
0.241 | 98.7 ± 0.6 | 0.622 | 100 ± 2.1 | 0.396 | 101.1±1.9 | 0.536 | O=C(CCCCCCC(=O)Nc1ccccc1)NO [Vorinostat] | –
– | 99.8 ± 3.9 | – | – | – | 100.4±4.5 | – | CC(=O)CC(c1ccccc1)c1c(O)c2ccccc2oc1=O (stereo not drawn) [Warfarin] | recovery at 20 min, 10 μM (in vitro): 94.2 ± 3.8%
